Key:
[1] = test system: K562 cells transfected to express syndecan-4; assay: Uptake of Xentry by K562 cells engineered to express syndecan-4; format: cell-based; details: TAMRA-lclrpvg 20 μM, 3 h, 48 h after transfection with pCMV-hygro-SDC4
Method: Cell nuclei were stained blue with DAPI. […] Scale bar, 50 μm.
The media was removed and replaced with RPMI without serum. Four micrograms of the syndecan-4 plasmid pCMV-hygro-SDC4 and 4 μl of polymag transfection reagent (OZ Biosciences, Marseille, France) were mixed in 100 μl of Opti-MEM media. The mixture was incubated for 20 min at room temperature, added to the cells, and the tissue culture plate placed onto a magnetic plate for 20 min. The media was removed and replaced with RPMI media containing 10% FCS, followed by incubation for 48 h at 37°C and 5% CO2, with a media change after 24 h. TAMRA-labelled Xentry (TAMRA-lclrpvg) was added to the transfectants 48 h following transfection to a final concentration of 20 μM, and the cells were incubated for 3 h. The cells were removed from the plate, washed thrice with PBS, cytospun onto a slide, and fixed with 4% formaldehyde for 15 min. They were washed with PBS and DAPI added for visualization of cell nuclei. […] The cells were then examined using a Nikon E600 fluorescent microscope, and photographed.

[2] = test system: circulating blood cells; format: in vivo, Balb/c mice; details: 0.1, 1 and 5 mg i.v.; cytospins of whole blood at 15 min, 1 h, 6 h and 24 h
Method: (§1) All experiments in mice were performed in accordance with relevant institutional guidelines and regulations, and were subject to a protocol approved by the Animal Ethics Committee, the University of Auckland. Different amounts (0.1 mg, 1 mg and 5 mg) of a TAMRA-labelled D-isomeric form of Xentry (TAMRA-lclrpvg; Peptide 2.0 Inc., Chantilly, VA) were dissolved in 50 μl of PBS. […] Cardiac blood was collected into an EDTA tube and cytospun onto slides, and viewed by fluorescence microscopy to determine uptake of the peptide by blood cells. The major organs of each mouse was harvested and dissected in half to be either homogenized or placed in a cryotube with isopentane, frozen and sectioned. For homogenization, the organs were weighed and then homogenized in 500 μl of PBS in an Omni bead-ruptor homogenizer (OMNI International, Kennesaw, GA). Equal volumes of homogenate and 8 M guanidinium chloride were mixed, and then centrifuged at 12,000 g for 5 min, and fluorescence of the supernatant measured in a fluorescence plate reader.
Supplementary Figure 6. […] A sample of […]
cardiac blood was collected from mice injected with 0.1, 1 and 5 mg of TAMRA-labelled Xentry at 4 different time points, and cytospun onto a slide. The blood sample was examined by brightfield and fluorescence microscopy. […]

[3] = format: in vivo, Balb/c mice
Method: as §1
Supplementary Figure 5 (cont)
Heart Lung Liver Spleen Pancreas Kidney Stomach Intestine Colon Muscle Brain […]
Supplementary Figure 5. Biodistribution of TAMRA-labelled Xentry intravenously injected into mice. (a) Mice were intravenously injected with 0.1 mg and 5 mg of TAMRA-labelled Xentry and the fluorescence of organ homogenates was measured 15 min, 1, 6, and 24 h later. Results are presented as the mean + SD (n = 3). Refer to Figure 4d for the fluorescence of organ homogenates of mice injected with 1 mg of Xentry. (b) Fluorescence of sections of the major organs of mice intravenously injected with 5 mg of TAMRA-labelled Xentry. The liver sections for the 15 min time-point […]

## TAMRA-lclrpvg [TAMRA-labelled Xentry, TAMRA-labelled D-isomeric form of Xentry]
[1]
  Uptake by syndecan-4-expressing K562 transfectants: increased uptake
[2]
  Uptake by circulating blood cells: not taken up and sequestered
[3]; 0.1, 1 and 5 mg i.v., organ homogenates
  Uptake by heart, pancreas, brain relative to other tissues: less well
[3]; 0.1, 1 and 5 mg i.v., lungs, liver, spleen, kidneys, stomach, small intestine, colon, muscle, homogenate fluorescence, n = 3
  Time to uptake by major tissues (organ homogenates): ≤ 15 min
[3]; i.v., 24 h, organ homogenates
  Level in most organs, except liver and kidneys, by 24 h: only low levels
[3]; i.v., fluorescence of organ sections
  Distribution within tissue sections: concentrated within particular regions of certain tissues, such as the epithelia lining the colon, stomach and bronchial airways

Source: paper PMC3627194, “Xentry, a new class of cell-penetrating peptide uniquely equipped for delivery of drugs” (Scientific Reports, 2013)
